The target in one experiment is T1, TRAF6/Uev1A/Ubc13 (Homo sapiens, UniProt Q9Y4K3).
T1 sequence (Q9Y4K3 1-522): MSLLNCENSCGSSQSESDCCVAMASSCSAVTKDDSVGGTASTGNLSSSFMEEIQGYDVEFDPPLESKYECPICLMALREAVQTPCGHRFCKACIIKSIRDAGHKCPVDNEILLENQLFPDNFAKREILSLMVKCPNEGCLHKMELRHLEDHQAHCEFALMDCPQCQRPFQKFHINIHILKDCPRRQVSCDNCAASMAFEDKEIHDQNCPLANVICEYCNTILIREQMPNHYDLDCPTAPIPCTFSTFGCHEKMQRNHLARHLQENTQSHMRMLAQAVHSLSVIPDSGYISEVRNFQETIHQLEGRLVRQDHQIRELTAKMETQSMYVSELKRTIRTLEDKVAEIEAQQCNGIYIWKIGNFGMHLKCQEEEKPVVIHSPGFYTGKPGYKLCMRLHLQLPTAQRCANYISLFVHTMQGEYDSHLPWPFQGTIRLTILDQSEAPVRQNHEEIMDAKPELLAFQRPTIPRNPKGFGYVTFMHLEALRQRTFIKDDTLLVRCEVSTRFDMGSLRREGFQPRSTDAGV
Description: TRAF6/Uev1A/Ubc13 plate-based ubiquitin ligase assay. The format is biochemical. The gist of the method: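 Ligase activity was read as luminescence from anti-Flag/HRP detection of Flag-ubiquitin bound to casein-blocked Ni-plates alongside His-ubiquitin after a 1 h room-temperature reaction. Buffer: 62.5 mM Tris pH 7.5, 6.25 mM MgCl2, 1.0 mM DTT, 2 μM ATP; E1, Uev1a/Ubc13 and TRAF6 added last to start. IC50s derived across compound concentrations.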

Another experiment deals with H1299 cells. The experiment in a line: Cell proliferation PAD assay, H1299. It counts as cell-based. To be noted: Homo sapiens, 48 hours. The gist of the method:
(§1)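 Cells plated at 2,000/well; compounds added 24 h later as 6.3-fold dilutions from a 10 mM master stock, diluted 500-fold into wells, in duplicate. After 48 h at 37 °C, 5% CO2, cells were formamide-fixed, DAPI-stained and imaged to count live, apoptotic and dead cells.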

A further experiment concerns A549 cells. The experiment in a line: Cell proliferation PAD assay, A549. To be noted: Homo sapiens, 48 hours. The format is cell-based. The gist of the method: as §1
Setting [1] is: NCI-H1299, 3pt, read-out: H1299 3pt.
[2] abbreviates: NCI-H1299, 6pt, read-out: H1299 6pt.

pIC50: −log10 of the molar value. Like-named read-outs stand apart in the source and are kept apart here. A value given as a limit tells only on which side of the number the result lay.

Results on 20 molecules are retold here after US20050282818A1, “Ubiquitin ligase inhibitors” (Rigel Pharmaceuticals, Inc., priority 2004, published 2005).

Consider `COc1ccc(S(=O)(=O)N2CCN(c3ncc(C(F)(F)F)cc3Cl)CC2)c2nonc12` [compound 163, 4-({4-[3-chloro-5-(trifluoromethyl)pyridin-2-yl]piperazin-1-yl}sulfonyl)-7-methoxy-2,1,3-benzoxadiazole], for which the pIC50 against TRAF6/Uev1A/Ubc13 is 4.70 to 6.00; in the experiment on H1299 cells (setting [1]) it was ≤ 4.70; in the experiment with A549 cells (3pt, read-out: A549 3pt), ≤ 4.70.

As for `O=S(=O)(c1ccc(F)c2nonc12)N1CCN(c2ncccc2C(F)(F)F)CC1` [compound 165, 4-fluoro-7-({4-[3-(trifluoromethyl)pyridin-2-yl]piperazin-1-yl}sulfonyl)-2,1,3-benzoxadiazole], the pIC50 against TRAF6/Uev1A/Ubc13 was ≤ 4.70; with H1299 cells (setting [1]), ≤ 4.70; in the experiment on H1299 cells (setting [2]), ≤ 4.70; in the experiment with A549 cells (3pt, read-out: A549 3pt), 4.70 to 6.00; in the experiment on A549 cells (6pt, read-out: A549 6pt), ≤ 4.70.

Take `O=S(=O)(c1ccc(N2CCN(c3ncccc3C(F)(F)F)CC2)c2nonc12)N1CCN(c2ncccc2C(F)(F)F)CC1` [compound 166, 4-{4-[3-(trifluoromethyl)pyridin-2-yl]piperazin-1-yl}-7-({4-[3-(trifluoromethyl)pyridin-2-yl]piperazin-1-yl}sulfonyl)-2,1,3-benzoxadiazole]: the pIC50 at TRAF6/Uev1A/Ubc13 was 4.70 to 6.00; in the experiment on H1299 cells (setting [2]), ≤ 4.70; in the experiment with A549 cells (6pt, read-out: A549 6pt) it was 4.70 to 6.00.

Take `O=S(=O)(c1ccc(Cl)c2nonc12)N1CCC(O)(c2ccc(Cl)cc2)CC1` [compound 168, 1-[(7-chloro-2,1,3-benzoxadiazol-4-yl)sulfonyl]-4-(4-chlorophenyl)piperidin-4-ol]: the pIC50 was ≤ 4.70 against TRAF6/Uev1A/Ubc13; 4.70 to 6.00 with H1299 cells (setting [1]); ≤ 4.70 in the experiment on H1299 cells (setting [2]); 4.70 to 6.00 in the experiment with A549 cells (3pt, read-out: A549 3pt); ≤ 4.70 in the experiment with A549 cells (6pt, read-out: A549 6pt).

In the case of `O=S(=O)(c1ccc(Cl)c2nonc12)N1CCN(c2ccc(O)cc2)CC1` [compound 172, 4-{4-[(7-chloro-2,1,3-benzoxadiazol-4-yl)sulfonyl]piperazin-1-yl}phenol], the pIC50 against TRAF6/Uev1A/Ubc13 is ≤ 4.70; in the experiment with H1299 cells (setting [1]), 4.70 to 6.00; in the experiment with H1299 cells (setting [2]), ≤ 4.70; in the experiment with A549 cells (3pt, read-out: A549 3pt) it was 4.70 to 6.00; in the experiment with A549 cells (6pt, read-out: A549 6pt), ≤ 4.70.

As for `O=S(=O)(c1ccc(N2CCN(c3ccc(O)cc3)CC2)c2nonc12)N1CCN(c2ccc(O)cc2)CC1` [compound 173, 4-[4-({7-[4-(4-hydroxyphenyl)piperazin-1-yl]-2,1,3-benzoxadiazol-4-yl}sulfonyl)piperazin-1-yl]phenol], the pIC50 is ≤ 4.70 on TRAF6/Uev1A/Ubc13; 4.70 to 6.00 with H1299 cells (setting [2]); 4.70 to 6.00 with A549 cells (6pt, read-out: A549 6pt).

`COC(=O)c1ccc(NS(=O)(=O)c2ccc(Sc3cccc4cccnc34)c3nonc23)cc1` [compound 174, methyl 4-({[7-(quinolin-8-ylthio)-2,1,3-benzoxadiazol-4-yl]sulfonyl}amino)benzoate]: the pIC50 on TRAF6/Uev1A/Ubc13 is ≤ 4.70; in the experiment on H1299 cells (setting [1]) it was 4.70 to 6.00; with H1299 cells (setting [2]), 4.70 to 6.00; in the experiment on A549 cells (3pt, read-out: A549 3pt), 4.70 to 6.00; in the experiment with A549 cells (6pt, read-out: A549 6pt), 4.70 to 6.00.

For the molecule `N#Cc1cccnc1N1CCN(S(=O)(=O)c2ccc(Sc3cccc4cccnc34)c3nonc23)CC1` [compound 176, 2-(4-{[7-(quinolin-8-ylthio)-2,1,3-benzoxadiazol-4-yl]sulfonyl}piperazin-1-yl)nicotinonitrile], the pIC50 was 4.70 to 6.00 at TRAF6/Uev1A/Ubc13; ≤ 4.70 in the experiment on H1299 cells (setting [1]); ≤ 4.70 with H1299 cells (setting [2]); ≤ 4.70 in the experiment with A549 cells (3pt, read-out: A549 3pt); ≤ 4.70 in the experiment on A549 cells (6pt, read-out: A549 6pt).

With `O=S(=O)(c1ccc(N2CCN(c3ccccc3)CC2)c2nonc12)N1CCN(c2ccccc2)CC1` [compound 187, 4-(4-phenylpiperazin-1-yl)-7-[(4-phenylpiperazin-1-yl)sulfonyl]-2,1,3-benzoxadiazole], the pIC50 against TRAF6/Uev1A/Ubc13 was 4.70 to 6.00; in the experiment on H1299 cells (setting [1]) it was ≤ 4.70; with A549 cells (3pt, read-out: A549 3pt), ≤ 4.70.

For the molecule `CN1CCN(S(=O)(=O)c2ccc(Sc3cccc4cccnc34)c3nonc23)CC1` [compound 191, 8-({7-[(4-methylpiperazin-1-yl)sulfonyl]-2,1,3-benzoxadiazol-4-yl}thio)quinoline], the pIC50 was ≤ 4.70 at TRAF6/Uev1A/Ubc13; 4.70 to 6.00 in the experiment with H1299 cells (setting [1]); 4.70 to 6.00 with A549 cells (3pt, read-out: A549 3pt).

Turning to `Nc1ccc(S(=O)(=O)Nc2ccnc(Cl)c2)c2nonc12` [compound 195, 7-amino-N-(2-chloropyridin-4-yl)-2,1,3-benzoxadiazole-4-sulfonamide], the pIC50 was ≤ 4.70 against TRAF6/Uev1A/Ubc13; ≤ 4.70 with H1299 cells (setting [1]); ≤ 4.70 with A549 cells (3pt, read-out: A549 3pt).

For `CC1CN(c2ccc3nonc3c2S(=O)(=O)N2CC(C)OC(C)C2)CC(C)O1` (stereo not shown) [compound 205, 5-(2,6-dimethylmorpholin-4-yl)-4-[(2,6-dimethylmorpholin-4-yl)sulfonyl]-2,1,3-benzoxadiazole], the pIC50 on TRAF6/Uev1A/Ubc13 is ≤ 4.70; in the experiment with H1299 cells (setting [1]), 4.70 to 6.00; in the experiment with A549 cells (3pt, read-out: A549 3pt), ≤ 4.70.

Take `CC1CN(c2ccc(S(=O)(=O)N3CC(C)OC(C)C3)c3nonc23)CC(C)O1` (stereo not shown) [compound 211, 4-(2,6-dimethylmorpholin-4-yl)-7-[(2,6-dimethylmorpholin-4-yl)sulfonyl]-2,1,3-benzoxadiazole]: the pIC50 was ≤ 4.70 at TRAF6/Uev1A/Ubc13; ≤ 4.70 with H1299 cells (setting [1]); ≤ 4.70 in the experiment with A549 cells (3pt, read-out: A549 3pt).

As to `CC1CN(S(=O)(=O)c2ccc(Sc3cccc4cccnc34)c3nonc23)CC(C)O1` (stereo not shown) [compound 213, 8-({7-[(2,6-dimethylmorpholin-4-yl)sulfonyl]-2,1,3-benzoxadiazol-4-yl}thio)quinoline], the pIC50 against TRAF6/Uev1A/Ubc13 is ≤ 4.70; in the experiment with H1299 cells (setting [1]), ≤ 4.70; in the experiment on A549 cells (3pt, read-out: A549 3pt), 4.70 to 6.00.

As for `Nc1ccc2cnn(S(=O)(=O)c3ccc(Cl)c4nonc34)c2c1` [compound 221, 1-[(7-chloro-2,1,3-benzoxadiazol-4-yl)sulfonyl]-1H-indazol-6-amine], the pIC50 against TRAF6/Uev1A/Ubc13 is ≤ 4.70; in the experiment on H1299 cells (setting [1]), ≤ 4.70; with A549 cells (3pt, read-out: A549 3pt), ≤ 4.70.

Consider `O=S(=O)(Nc1ccc2[nH]ncc2c1)c1ccc(Sc2cccc3cccnc23)c2nonc12` [compound 224, N-1H-indazol-5-yl-7-(quinolin-8-ylthio)-2,1,3-benzoxadiazole-4-sulfonamide], for which the pIC50 on TRAF6/Uev1A/Ubc13 was ≤ 4.70; in the experiment with H1299 cells (setting [1]) it was ≤ 4.70; in the experiment on A549 cells (3pt, read-out: A549 3pt) it was 4.70 to 6.00.

For the molecule `O=S(=O)(c1ccc(Cl)c2nonc12)N1CCC(Oc2ccccc2C(F)(F)F)CC1` [compound 230, 4-chloro-7-({4-[2-(trifluoromethyl)phenoxy]piperidin-1-yl}sulfonyl)-2,1,3-benzoxadiazole], the pIC50 on TRAF6/Uev1A/Ubc13 is 4.70 to 6.00; with H1299 cells (setting [1]), 4.70 to 6.00; in the experiment on A549 cells (3pt, read-out: A549 3pt), 4.70 to 6.00.

Take `CC(=O)C1(c2ccccc2)CCN(c2ccc([N+](=O)[O-])c3nonc23)CC1` [compound 231, 1-[1-(7-nitro-2,1,3-benzoxadiazol-4-yl)-4-phenylpiperidin-4-yl]ethanone]: the pIC50 against TRAF6/Uev1A/Ubc13 is 4.70 to 6.00; in the experiment on H1299 cells (setting [1]), 4.70 to 6.00; in the experiment on A549 cells (3pt, read-out: A549 3pt), ≤ 4.70.

With `O=S(=O)(c1ccc(F)c2nonc12)N1CCC(Oc2ccccc2C(F)(F)F)CC1` [compound 232, 4-fluoro-7-({4-[2-(trifluoromethyl)phenoxy]piperidin-1-yl}sulfonyl)-2,1,3-benzoxadiazole], the pIC50 was 4.70 to 6.00 against TRAF6/Uev1A/Ubc13; 4.70 to 6.00 in the experiment with H1299 cells (setting [1]); 4.70 to 6.00 with A549 cells (3pt, read-out: A549 3pt).

With `O=[N+]([O-])c1ccc(N2CCC(Oc3ccccc3C(F)(F)F)CC2)c2nonc12` [compound 233, 4-nitro-7-{4-[2-(trifluoromethyl)phenoxy]piperidin-1-yl}-2,1,3-benzoxadiazole], the pIC50 was > 6.00 on TRAF6/Uev1A/Ubc13; ≤ 4.70 in the experiment on H1299 cells (setting [1]); ≤ 4.70 in the experiment with A549 cells (3pt, read-out: A549 3pt).
